Test results as given in article PMC3136501 (PLoS ONE, 2011).

Molecular target: T1, human OCT2 (Homo sapiens, UniProt O15244)
T1 construct: OCT2: NP_003049.2; expressed in transfected cells; host or cells: HEK293 (ATCC), stably transfected with pcDNA3.1(+)-SLC22A2
T1 sequence (O15244 1-555): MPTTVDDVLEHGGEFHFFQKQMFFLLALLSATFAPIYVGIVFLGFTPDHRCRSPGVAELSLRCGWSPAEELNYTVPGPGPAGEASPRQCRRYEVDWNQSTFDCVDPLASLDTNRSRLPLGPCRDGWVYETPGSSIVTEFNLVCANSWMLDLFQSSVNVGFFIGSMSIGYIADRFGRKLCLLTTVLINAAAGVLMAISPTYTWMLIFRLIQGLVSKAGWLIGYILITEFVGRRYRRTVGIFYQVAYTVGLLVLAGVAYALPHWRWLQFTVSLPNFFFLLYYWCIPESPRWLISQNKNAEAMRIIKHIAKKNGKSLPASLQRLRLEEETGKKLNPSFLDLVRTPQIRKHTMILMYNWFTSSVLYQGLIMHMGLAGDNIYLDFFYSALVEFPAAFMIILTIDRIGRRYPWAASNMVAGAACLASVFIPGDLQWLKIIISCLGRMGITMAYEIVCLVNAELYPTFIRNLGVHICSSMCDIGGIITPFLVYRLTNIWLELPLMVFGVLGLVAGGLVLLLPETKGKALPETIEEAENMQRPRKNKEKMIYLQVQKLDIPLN
Assay: Inhibition of OCT2-mediated metformin uptake in stably transfected HEK cells
Format: cell-based
Settings: for IC50: 5 µM [14C]metformin uptake, 5 sec, HEK-OCT2, means ± SE of 3 experiments
Experimental: SLC22A1 cDNA and SLC22A2 cDNA had been PCR-amplified from human liver and kidney, respectively, as reported elsewhere and cDNAs were provided by the German Cancer Research Center; the study and the use of the tissue were approved by the institutional review board of the German Cancer Center, Heidelberg, Germany. Since the data were analyzed anonymously, and tissues were left-over samples from diagnostic procedures, written informed consent had not been required and obtained. IRB specifically waived the need for consent due to the fact the human tissue material used was fully anonymized. SLC22A3 cDNA was amplified using SLC22A3-TrueClone (Origene, Rockville, MD, USA) as the template. SLC22A1 cDNA was cloned into the expression vector pcDNA3.1/Hygro(-) (Invitrogen, Darmstadt, Germany), SLC22A2 and SLC22A3 cDNA into pcDNA3.1(+) (Invitrogen). […] HEK cells were grown in DMEM (Sigma) supplemented with 10% fetal bovine serum (Sigma), 100 U⋅ml^−1 penicillin, and 100 µg⋅ml^−1 streptomycin (Lonza, Basel, Switzerland) at 37°C and 5% CO2. HEK cells were transfected with Metafectene Pro (Biontex, München, Germany). Selection of clones stably expressing OCT1 was carried out with 0.5 mg⋅ml^−1 hygromycin as described. Similarly, clones stably expressing OCT2 or OCT3 were selected with 800 µg⋅ml^−1 G418. HEK cells stably transfected with the empty pcDNA3.1(+) vector served as controls (HEK-Co). Cells were incubated with 5 mM butyrate 24 h before use to increase protein levels of recombinant transporters.
HEK cells (400000 cells/well) were seeded into 24-well cell culture plates (Greiner Bio-One, Frickenhausen, Germany) and grown for 48 h. Cell adherence was improved by coating plates with poly-L-lysine (Biochrom AG, Berlin, Germany) prior to cell plating. All uptake studies were carried out at 37°C as described. […] Uptake was stopped at indicated time points by removing the uptake buffer and immediately washing the cells 3 times with ice-cold uptake buffer. Cells were lysed with 0.2% SDS and intracellular radioactivity was determined by liquid scintillation counting (Hidex 300SL TDCR liquid scintillation counter, Turku, Finland).
OCT-specific metformin uptake was obtained by subtracting metformin uptake in the presence of 2 mM unlabeled 1-methyl-4-phenylpyridinium (MPP) from that in its absence. […] OCT-specific metformin uptake in the presence of a PPI was then calculated as percentage of that in the absence of the respective PPI (100% uninhibited). For each PPI concentration, 3 individual experiments each with 3 parallel measurements were performed. Apparent IC50 values for inhibition of metformin uptake by PPIs were calculated for each individual experiment by fitting the values to the Hill equation using GraphPad Prism 4 (GraphPad Software Inc., La Jolla, CA, USA). Values in Table 1 are given as the means ± SE of the 3 individual experiments.

| SMILES | IC50 | Metformin uptake by HEK-OCT2 in the presence of MPP (5 µM metformin, 2 mM unlabeled MPP) |
| --- | --- | --- |
| Cc1c(OCC(F)(F)F)ccnc1C[S+]([O-])c1nc2ccccc2[nH]1 (stereo not drawn) [Lansoprazole] | 9.5 ± 3.8 µM | – |
| C[n+]1ccc(-c2ccccc2)cc1 [MPP, 1-methyl-4-phenylpyridinium] | – | almost completely absent |
| COc1ccc2[nH]c([S+]([O-])Cc3ncc(C)c(OC)c3C)nc2c1 (stereo not drawn) [Omeprazole] | 6.7 ± 2.1 µM | – |
| COc1ccnc(C[S+]([O-])c2nc3ccc(OC(F)F)cc3[nH]2)c1OC (stereo not drawn) [Pantoprazole] | 2.8 ± 0.9 µM | – |
| COCCCOc1ccnc(C[S+]([O-])c2nc3ccccc3[nH]2)c1C (stereo not drawn) [Rabeprazole] | 5.7 ± 0.5 µM | – |
| COc1ccc2[nH]c([S+]([O-])Cc3ncc(C)c(OC)c3C)nc2n1 (stereo not drawn) [Tenatoprazole] | 20.3 ± 7.2 µM | – |
